The text below walks through data of PubChem BioAssay (NCI).

Test systems include MALME-3M melanoma; OVCAR-5 ovarian; SK-OV-3 ovarian; HCC-2998 colon; SF-539 CNS; A549 NSCLC; CAKI-1 renal; MOLT-4 leukemia; NCI-H460 lung; IGROV1 ovarian.
Test in all cases: DTP human tumour cell line panel, 48 h

“And” between values parts separate entries of the source, which are not always exact repeats. Identical values can stand only once.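 Growth conditions: 96-well plates. Treatment: test compound, 48 hours, 5 concentrations. Analysis: linear interpolation between bracketing concentrations; unreached endpoints set to highest concentration. Here, GI50 denotes the concentration required for 50% inhibition of growth. TGI denotes the concentration required for complete inhibition of growth.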

By GI50 is commonly meant the concentration giving 50% growth inhibition. By TGI is commonly meant the concentration giving total growth inhibition. Higher therefore signals less potent growth arrest. For the molecule `NC(=O)c1ccccc1NC(=O)c1ccccc1Cl`, the GI50 in the assay on MALME-3M melanoma, in the assay with OVCAR-5 ovarian, in the assay with SK-OV-3 ovarian, in the assay with HCC-2998 colon, in the assay with SF-539 CNS and in the assay with A549 NSCLC was more than 100 µM each time. Besides, the GI50 in the assay with CAKI-1 renal, in the assay on MOLT-4 leukemia, in the assay with NCI-H460 lung and with IGROV1 ovarian was more than 100 µM throughout. Besides, the total growth inhibition concentration (TGI) in the assay on MALME-3M melanoma, with OVCAR-5 ovarian, with SK-OV-3 ovarian, in the assay on HCC-2998 colon, in the assay with SF-539 CNS and in the assay on A549 NSCLC was more than 100 µM throughout. In addition, the TGI in the assay with CAKI-1 renal, with MOLT-4 leukemia, in the assay on NCI-H460 lung and with IGROV1 ovarian was more than 100 µM in each case.
Consider `COc1cc(F)c(/C=C/c2cc(/C=C/c3cc(OC)c(OC)cc3F)n(-c3cc(F)cc(F)c3)n2)cc1OC`, for which the GI50 is 1.78 µM in the assay on MALME-3M melanoma; 2.96 µM in the assay on OVCAR-5 ovarian; 19.6 µM with SK-OV-3 ovarian; 6.18 µM in the assay on HCC-2998 colon; 2.7 µM with SF-539 CNS; 3.29 µM with A549 NSCLC. Besides, the GI50 in the assay with CAKI-1 renal is 12.8 µM; in the assay on MOLT-4 leukemia, 6.64 µM; in the assay with NCI-H460 lung it was 3.43 µM; in the assay on IGROV1 ovarian, 4.73 µM. Moreover, the TGI in the assay on MALME-3M melanoma was found to be 4.06 µM; in the assay on OVCAR-5 ovarian it was 10.3 µM; in the assay with SK-OV-3 ovarian, 41.9 µM; in the assay with HCC-2998 colon, 47.9 µM; in the assay with SF-539 CNS, 9.17 µM; in the assay on A549 NSCLC, 11.4 µM. The concentration for total growth inhibition (TGI) with CAKI-1 renal is 34.4 µM; in the assay on MOLT-4 leukemia it was more than 100 µM; in the assay with NCI-H460 lung it was 12.2 µM; with IGROV1 ovarian, 21.1 µM.
`Cn1cnc2c(F)c(Nc3ccc(Br)cc3F)c(C(=O)NOCCO)cc21`: the concentration for 50% growth inhibition (GI50) in the assay on MALME-3M melanoma was 0.0136 µM and < 0.01 µM; with OVCAR-5 ovarian, 0.0286 µM and 0.022 µM; in the assay on SK-OV-3 ovarian, more than 92 µM; in the assay with HCC-2998 colon it was 0.0162 µM and 0.034 µM; with SF-539 CNS it was > 3.24 µM and 21.5 µM; in the assay with A549 NSCLC it was 5.87 µM. The figures for the GI50 with CAKI-1 renal, in the assay on MOLT-4 leukemia and with NCI-H460 lung were 5.94 µM, more than 100 µM and more than 100 µM, respectively. The total growth inhibition concentration (TGI) in the assay with MALME-3M melanoma was 0.138 µM and 0.0486 µM; in the assay with OVCAR-5 ovarian it was more than 48.4 µM; with SK-OV-3 ovarian, more than 100 µM; with HCC-2998 colon, 4.51 µM; in the assay on SF-539 CNS it was more than 100 µM; in the assay with A549 NSCLC, more than 100 µM. The TGI in the assay with CAKI-1 renal, in the assay with MOLT-4 leukemia, in the assay with NCI-H460 lung and in the assay on IGROV1 ovarian was more than 100 µM in each case.
Turning to `NCCCN1CCN(CCCNc2nc3ccccc3c3[nH]c4ccccc4c23)CC1`, the GI50 with MALME-3M melanoma was 2.3 µM; in the assay with OVCAR-5 ovarian it was 0.292 µM; with SK-OV-3 ovarian, 6.7 µM; in the assay with HCC-2998 colon, 0.0895 µM; with SF-539 CNS, 0.438 µM; in the assay with A549 NSCLC it was 0.323 µM. For the same molecule, the GI50 is 0.414 µM with CAKI-1 renal, 0.155 µM in the assay on MOLT-4 leukemia, 0.32 µM in the assay with NCI-H460 lung and 0.638 µM in the assay on IGROV1 ovarian. Further, the total growth inhibition concentration (TGI) came to 4.96 µM in the assay with MALME-3M melanoma; 1.48 µM in the assay with OVCAR-5 ovarian; 41.4 µM with SK-OV-3 ovarian; 0.758 µM in the assay on HCC-2998 colon; 1.5 µM with SF-539 CNS; 2.37 µM with A549 NSCLC. Besides, the TGI with CAKI-1 renal was 3.45 µM; with MOLT-4 leukemia, 4.02 µM; with NCI-H460 lung, 1.42 µM; in the assay with IGROV1 ovarian, 4.38 µM.
For the molecule `Cc1ccc(C=NC23CC4CC(CC(C4)C2)C3)cc1`, the TGI in the assay on MALME-3M melanoma, with OVCAR-5 ovarian, in the assay with SK-OV-3 ovarian, with HCC-2998 colon, in the assay with SF-539 CNS and in the assay on A549 NSCLC was more than 100 µM in each case. Besides, the TGI in the assay on CAKI-1 renal, with MOLT-4 leukemia, with NCI-H460 lung and in the assay on IGROV1 ovarian was more than 100 µM throughout.
Consider `CC(C)CC12CC3CCC(CNC1=O)C32C` (stereo not drawn), for which the TGI in the assay with MALME-3M melanoma, in the assay on OVCAR-5 ovarian, in the assay on SK-OV-3 ovarian, with HCC-2998 colon, in the assay on SF-539 CNS and in the assay with A549 NSCLC was more than 100 µM throughout. In addition, the concentration for total growth inhibition (TGI) in the assay on CAKI-1 renal, in the assay with MOLT-4 leukemia, in the assay with NCI-H460 lung and in the assay with IGROV1 ovarian was more than 100 µM each time.
As to `Cc1nc2c(N3CCCC3)nc(N3CCNCC3)nc2nc1NCc1ccccc1`, the GI50 with MALME-3M melanoma was 7.17 µM; in the assay on OVCAR-5 ovarian, 6.11 µM; in the assay with SK-OV-3 ovarian it was 6.15 µM; with SF-539 CNS it was 6.21 µM; with A549 NSCLC, 5.45 µM; in the assay with CAKI-1 renal, 4.82 µM. Further, the results for the GI50 with MOLT-4 leukemia, in the assay on NCI-H460 lung and with IGROV1 ovarian were 3.34 µM, 5.97 µM and 4.49 µM, respectively. The concentration for total growth inhibition (TGI) in the assay with MALME-3M melanoma is 14.5 µM and 4.23 µM; in the assay with OVCAR-5 ovarian, 11.6 µM and 26.1 µM; with SK-OV-3 ovarian, 11.7 µM and 20.5 µM; with HCC-2998 colon, 2.95 µM; in the assay on SF-539 CNS, 13.4 µM and 7 µM; in the assay on A549 NSCLC it was 12.6 µM and 14.2 µM. The TGI in the assay on CAKI-1 renal is 10.6 µM and 14 µM; with MOLT-4 leukemia, 15.1 µM and > 21.2 µM; in the assay with NCI-H460 lung, 13.3 µM and 13.4 µM; with IGROV1 ovarian, 9.84 µM and 15.1 µM.
Regarding `C=C(CNC(=O)c1ccccc1)c1ccc(C(=O)Nc2ccccc2N)cc1`, the GI50 in the assay with MALME-3M melanoma was 2 µM; in the assay on OVCAR-5 ovarian, 2.22 µM; with SK-OV-3 ovarian, more than 100 µM; with HCC-2998 colon, 9.3 µM; in the assay with SF-539 CNS, 1.38 µM; in the assay on A549 NSCLC it was 9.52 µM. For the same molecule, the GI50 is 4.09 µM in the assay on CAKI-1 renal, 1.49 µM in the assay with MOLT-4 leukemia, 8.02 µM with NCI-H460 lung and 19.5 µM with IGROV1 ovarian. The TGI with MALME-3M melanoma, in the assay with OVCAR-5 ovarian, in the assay with SK-OV-3 ovarian, in the assay with HCC-2998 colon, in the assay on SF-539 CNS and in the assay on A549 NSCLC was more than 100 µM in each case. The concentration for total growth inhibition (TGI) was 45.4 µM in the assay with CAKI-1 renal, more than 100 µM in the assay with MOLT-4 leukemia, more than 100 µM in the assay on NCI-H460 lung and more than 100 µM with IGROV1 ovarian.
